Activity calls are given as the source filed them.
Experiments:
[1] = biological target: T1, Glucocorticoid receptor (Mus musculus) (UniProt P06537); experiment: Binding affinity to glucocorticoid receptor in mouse RAW264.7 cells assessed as increase in thermal stability at 47 degreeC pretreated for 24 hrs followed by heat exposure for 3 mins and subsequently incubated at room temperature for 3 mins by CETSA; assay type: cell-based; settings: dose 2.5-40 µM, time 1446.0 min
T1 sequence (whole entry): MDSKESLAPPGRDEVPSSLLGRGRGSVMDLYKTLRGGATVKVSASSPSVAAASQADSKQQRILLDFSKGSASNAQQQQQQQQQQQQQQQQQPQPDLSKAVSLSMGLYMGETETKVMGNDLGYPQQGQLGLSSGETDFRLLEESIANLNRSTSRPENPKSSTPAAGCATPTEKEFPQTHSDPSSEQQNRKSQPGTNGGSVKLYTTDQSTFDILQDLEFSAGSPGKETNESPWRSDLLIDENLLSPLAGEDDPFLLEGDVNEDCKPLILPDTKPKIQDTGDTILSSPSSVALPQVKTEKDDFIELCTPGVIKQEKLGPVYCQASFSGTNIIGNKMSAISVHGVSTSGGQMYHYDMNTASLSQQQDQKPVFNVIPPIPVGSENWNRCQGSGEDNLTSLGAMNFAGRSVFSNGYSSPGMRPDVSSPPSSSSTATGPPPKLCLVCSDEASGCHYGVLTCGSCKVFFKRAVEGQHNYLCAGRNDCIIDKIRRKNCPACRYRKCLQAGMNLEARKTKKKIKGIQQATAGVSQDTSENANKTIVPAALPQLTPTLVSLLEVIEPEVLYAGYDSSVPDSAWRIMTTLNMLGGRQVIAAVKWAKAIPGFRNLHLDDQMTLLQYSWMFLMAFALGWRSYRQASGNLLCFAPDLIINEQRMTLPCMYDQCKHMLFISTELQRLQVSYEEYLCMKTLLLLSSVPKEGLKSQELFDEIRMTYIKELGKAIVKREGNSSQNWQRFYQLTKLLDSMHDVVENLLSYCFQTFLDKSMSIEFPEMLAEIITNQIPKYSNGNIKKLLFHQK

[2] = biological target: T1, Glucocorticoid receptor (Mus musculus); experiment: Modulation of glucocorticoid receptor in LPS-treated mouse RAW264.7 cells assessed as protein translocation from cytoplasm to nucleus at 20 uM pretreated for 12 hrs followed by LPS stimulation for 2 hrs by immunofluorescence based analysis; assay type: subcellular; settings: filed as modulator, time 14.0 hrs
Mus musculus [3] = experiment: Upregulation of glucocorticoid receptor expression in liver of LPS-induced sepsis BALB/c mouse model at 7.5 to 30 mg/kg administered via gavage for 3 days followed by LPS treatment for 6 hrs by immunofluorescence analysis; assay type: functional, organism-based; settings: dose 7.5-30 mg/kg, time 78.0 hrs
RAW264.7 [4] = experiment: Anti-inflammatory activity in mouse RAW264.7 cells assessed as decrease in LPS-induced I-kappaB-alpha phosphorylation at 20 uM pretreated for 2 hrs followed by LPS stimulation for 24 hrs by Western blot analysis; assay type: functional, cell-based; settings: time 26.0 hrs
RAW264.7 [5] = experiment: Anti-inflammatory activity in LPS-treated mouse RAW264.7 cells assessed as reversal of nuclear translocation of p65 at 20 uM pretreated for 2 hrs followed by LPS stimulation for 24 hrs by immunofluorescence analysis; assay type: functional, cell-based; settings: time 26.0 hrs
Mus musculus [6] = experiment: Downregulation of I-kappa-B-alpha phosphorylation in liver of LPS-induced sepsis BALB/c mouse model at 7.5 to 30 mg/kg administered via gavage for 3 days followed by LPS treatment for 6 hrs by Western blot analysis; assay type: functional, organism-based; settings: dose 7.5-30 mg/kg, time 78.0 hrs
Mus musculus [7] = experiment: Downregulation of p65 phosphorylation in liver of LPS-induced sepsis BALB/c mouse model at 7.5 to 30 mg/kg administered via gavage for 3 days followed by LPS treatment for 6 hrs by Western blot analysis; assay type: functional, organism-based; settings: dose 7.5-30 mg/kg, time 78.0 hrs
Mus musculus [8] = experiment: Anti-septic activity in LPS-induced sepsis BALB/c mouse assessed as reduction in serum CRP level at 7.5 to 30 mg/kg administered via gavage for 3 days followed by LPS treatment for 6 hrs; assay type: functional, organism-based; settings: dose 7.5-30 mg/kg, time 78.0 hrs
Mus musculus [9] = experiment: Anti-septic activity in LPS-induced sepsis BALB/c mouse assessed as reduction in serum IL-6 level at 7.5 to 30 mg/kg administered via gavage for 3 days followed by LPS treatment for 6 hrs by ELISA; assay type: functional, organism-based; settings: dose 7.5-30 mg/kg, time 78.0 hrs

Measured: Activity

CC(C)(C)OC(=O)CCC(=O)Nc1nc2c(s1)C[C@]1(C)[C@H]3C[C@@H](O)[C@@H]4C([C@]5(C)CC[C@@H](C(C)(C)O)O5)CC[C@@]4(C)[C@]3(C)CC[C@H]1C2(C)C (some centres undefined)
active: [1] Dose-Dependent Effect | [2] | Mus musculus [3] | RAW264.7 [4] | RAW264.7 [5] | Mus musculus [6] | Mus musculus [7] | Mus musculus [8] | Mus musculus [9]
